Measurements: patent US11141413B2, “Method of treating renal cell carcinoma using N-(4-(6,7-dimethoxyquinolin-4-yloxy)phenyl)-N′-(4-fluorophenyl)cyclopropane-1,1-dicarboxamide, (2S)-hydroxybutanedioate” (Exelixis, Inc., priority 2016, dated 2021)

System: patients with advanced renal cell carcinoma
Conditions: in vivo
Method: Treatment modifications, including interruptions and dose reductions, were allowed to manage adverse events. […] Patients were allowed to continue study treatment beyond radiographic progression at the discretion of the investigator. On-study crossover between treatment groups was not permitted. Safety evaluations, including physical examination, vital signs, and laboratory assessments, were conducted every 2 weeks for the first 8 weeks and then every 4 weeks thereafter. ECG assessments were performed every 4 weeks for the first 8 weeks and then every 12 weeks. A safety follow-up visit was scheduled 30 days after treatment discontinuation. Adverse events were assessed by investigators and graded according to CTCAE version 4.0.
Safety analyses were limited to patients who received any amount of study treatment.

COc1cc2nccc(Oc3ccc(NC(=O)C4(C(=O)Nc5ccc(F)cc5)CC4)cc3)c2cc1OC [cabozantinib]
Abdominal pain, Grade 1-2 (human): 48 (15) n (%)
Abdominal pain, Grade 3 (human): 12 (4) n (%)
Abdominal pain, Grade 4 (human): 0 n (%)
Alanine aminotransferase increased, Grade 1-2 (human): 47 (14) n (%)
Alanine aminotransferase increased, Grade 3 (human): 7 (2) n (%)
Alanine aminotransferase increased, Grade 4 (human): 1 (<1) n (%)
Anemia, Grade 1-2 (human): 42 (13) n (%)
Anemia, Grade 3 (human): 19 (6) n (%)
Anemia, Grade 4 (human): 0 n (%)
Any AE, Grade 1-2 (human): 70 (21) n (%)
Any AE, Grade 3 (human): 210 (63) n (%)
Any AE, Grade 4 (human): 25 (8) n (%)
Arthralgia, Grade 1-2 (human): 43 (13) n (%)
Arthralgia, Grade 3 (human): 1 (<1) n (%)
Arthralgia, Grade 4 (human): 0 n (%)
Aspartate aminotransferase increased, Grade 1-2 (human): 55 (17) n (%)
Aspartate aminotransferase increased, Grade 3 (human): 5 (2) n (%)
Aspartate aminotransferase increased, Grade 4 (human): 0 n (%)
Asthenia, Grade 1-2 (human): 49 (15) n (%)
Asthenia, Grade 3 (human): 15 (5) n (%)
Asthenia, Grade 4 (human): 0 n (%)
Back pain, Grade 1-2 (human): 54 (16) n (%)
Back pain, Grade 3 (human): 8 (2) n (%)
Back pain, Grade 4 (human): 0 n (%)
Blood creatinine increased, Grade 1-2 (human): 17 (5) n (%)
Blood creatinine increased, Grade 3 (human): 1 (<1) n (%)
Blood creatinine increased, Grade 4 (human): 0 n (%)
Constipation, Grade 1-2 (human): 89 (27) n (%)
Constipation, Grade 3 (human): 1 (<1) n (%)
Constipation, Grade 4 (human): 0 n (%)
Cough, Grade 1-2 (human): 67 (20) n (%)
Cough, Grade 3 (human): 1 (<1) n (%)
Cough, Grade 4 (human): 0 n (%)
Decreased appetite, Grade 1-2 (human): 146 (44) n (%)
Decreased appetite, Grade 3 (human): 10 (3) n (%)
Decreased appetite, Grade 4 (human): 0 n (%)
Diarrhea, Grade 1-2 (human): 206 (62) n (%)
Diarrhea, Grade 3 (human): 43 (13) n (%)
Diarrhea, Grade 4 (human): 0 n (%)
Diarrhea, all grades (human): 249 (75%) n (%)
Diarrhea, grade 3 or 4 (human): 43 [13%] n [%]
Discontinuation due to a primary reason of AE (excluding disease progression) (human): 10%
Dizziness, Grade 1-2 (human): 41 (12) n (%)
Dizziness, Grade 3 (human): 1 (<1) n (%)
Dizziness, Grade 4 (human): 0 n (%)
Dry skin, Grade 1-2 (human): 37 (11) n (%)
Dry skin, Grade 3 (human): 0 n (%)
Dry skin, Grade 4 (human): 0 n (%)
Dysgeusia, Grade 1-2 (human): 80 (24) n (%)
Dysgeusia, Grade 3 (human): 0 n (%)
Dysgeusia, Grade 4 (human): 0 n (%)
Dyspepsia, Grade 1-2 (human): 40 (12) n (%)
Dyspepsia, Grade 3 (human): 1 (<1) n (%)
Dyspepsia, Grade 4 (human): 0 n (%)
Dysphonia, Grade 1-2 (human): 68 (21) n (%)
Dysphonia, Grade 3 (human): 2 (<1) n (%)
Dysphonia, Grade 4 (human): 0 n (%)
Dyspnoea, Grade 1-2 (human): 56 (17) n (%)
Dyspnoea, Grade 3 (human): 10 (3) n (%)
Dyspnoea, Grade 4 (human): 0 n (%)
Edema peripheral, Grade 1-2 (human): 39 (12) n (%)
Edema peripheral, Grade 3 (human): 0 n (%)
Edema peripheral, Grade 4 (human): 0 n (%)
Epistaxis, Grade 1-2 (human): 14 (4) n (%)
Epistaxis, Grade 3 (human): 0 n (%)
Epistaxis, Grade 4 (human): 0 n (%)
Fatigue, Grade 1-2 (human): 159 (48) n (%)
Fatigue, Grade 3 (human): 36 (11) n (%)
Fatigue, Grade 4 (human): 0 n (%)
Fatigue, all grades (human): 195 (59%) n (%)
Fatigue, grade 3 or 4 (human): 36 [11%] n [%]
Flatulence, Grade 1-2 (human): 33 (10) n (%)
Flatulence, Grade 3 (human): 0 n (%)
Flatulence, Grade 4 (human): 0 n (%)
Grade 3 and 4 adverse events: Hyperglycemia, % (human): 1 (1) %
Grade 3 or 4 Adverse Events: Hypercalcemia (event of interest), % (human): (1) %
Grade 3 or 4 Adverse Events: Hyperglycemia, % (human): (1) %
Grade 3 or 4 Adverse Events: PPES, % (human): (8) %
Grade 3 or 4 adverse events (human): 235 (71%) n (%)
Grade 5 adverse events regardless of causality (human): 7.9%
Headache, Grade 1-2 (human): 43 (13) n (%)
Headache, Grade 3 (human): 1 (<1) n (%)
Headache, Grade 4 (human): 0 n (%)
Hyperglycemia, Grade 1-2 (human): 15 (5) n (%)
Hyperglycemia, Grade 3 (human): 2 (<1) n (%)
Hyperglycemia, Grade 4 (human): 1 (<1) n (%)
Hypertension, Grade 1-2 (human): 73 (22) n (%)
Hypertension, Grade 3 (human): 49 (15) n (%)
Hypertension, Grade 4 (human): 0 n (%)
Hypertension, grade 3 or 4 (human): 49 [15%] n [%]
Hypertriglyceridemia, Grade 1-2 (human): 17 (5) n (%)
Hypertriglyceridemia, Grade 3 (human): 4 (1) n (%)
Hypertriglyceridemia, Grade 4 (human): 0 n (%)
Hypomagnesaemia, Grade 1-2 (human): 38 (12) n (%)
Hypomagnesaemia, Grade 3 (human): 6 (2) n (%)
Hypomagnesaemia, Grade 4 (human): 10 (3) n (%)
Hypothyroidism, Grade 1-2 (human): 76 (23) n (%)
Hypothyroidism, Grade 3 (human): 0 n (%)
Hypothyroidism, Grade 4 (human): 0 n (%)
Insomnia, Grade 1-2 (human): 32 (10) n (%)
Insomnia, Grade 3 (human): 0 n (%)
Insomnia, Grade 4 (human): 0 n (%)
Mucosal inflammation, Grade 1-2 (human): 60 (18) n (%)
Mucosal inflammation, Grade 3 (human): 5 (2) n (%)
Mucosal inflammation, Grade 4 (human): 0 n (%)
Muscle spasms, Grade 1-2 (human): 45 (14) n (%)
Muscle spasms, Grade 3 (human): 0 n (%)
Muscle spasms, Grade 4 (human): 0 n (%)
Nausea, Grade 1-2 (human): 158 (48) n (%)
Nausea, Grade 3 (human): 15 (5) n (%)
Nausea, Grade 4 (human): 0 n (%)
Nausea, all grades (human): 173 (52%) n (%)
Overall incidence of adverse events regardless of causality (human): 100%
Pain in extremity, Grade 1-2 (human): 46 (14) n (%)
Pain in extremity, Grade 3 (human): 5 (2) n (%)
Pain in extremity, Grade 4 (human): 0 n (%)
Palmar-plantar erythrodysaesthesia syndrome, Grade 1-2 (human): 115 (35) n (%)
Palmar-plantar erythrodysaesthesia syndrome, Grade 3 (human): 27 (8) n (%)
Palmar-plantar erythrodysaesthesia syndrome, Grade 4 (human): 0 n (%)
Patients with dose reductions (human): 62%
Proteinuria, Grade 1-2 (human): 37 (11) n (%)
Proteinuria, Grade 3 (human): 8 (2) n (%)
Proteinuria, Grade 4 (human): 0 n (%)
Pruritus, Grade 1-2 (human): 27 (8) n (%)
Pruritus, Grade 3 (human): 0 n (%)
Pruritus, Grade 4 (human): 0 n (%)
Pyrexia, Grade 1-2 (human): 31 (9) n (%)
Pyrexia, Grade 3 (human): 3 (<1) n (%)
Pyrexia, Grade 4 (human): 0 n (%)
Rash, Grade 1-2 (human): 52 (16) n (%)
Rash, Grade 3 (human): 2 (<1) n (%)
Rash, Grade 4 (human): 0 n (%)
Serious adverse events ≥grade 3 (human): 130 (40%) n (%)
Stomatitis, Grade 1-2 (human): 65 (20) n (%)
Stomatitis, Grade 3 (human): 8 (2) n (%)
Stomatitis, Grade 4 (human): 0 n (%)
Study treatment discontinuation due to diarrhea (human): 0.9%
Treatment discontinuation due to an adverse event not related to disease progression (human): 12%
Vomiting, Grade 1-2 (human): 106 (32) n (%)
Vomiting, Grade 3 (human): 7 (2) n (%)
Vomiting, Grade 4 (human): 0 n (%)
Weight decreased, Grade 1-2 (human): 105 (32) n (%)
Weight decreased, Grade 3 (human): 9 (3) n (%)
Weight decreased, Grade 4 (human): 0 n (%)
Grade 5 adverse events assessed as treatment-related: One
